Reference: ChEMBL document CHEMBL1201862, “PubChem BioAssay data set” (2004)
Blank lines part the entries; values can stand above or below the compound they belong to. The source made the active and inactive calls.

Columns and labels:
[1] = inhibition of ARNT PAS-B/TACC3 complex formation – biochemical, AlphaScreen, cherry-picked samples, confirmation (AID 651703); format: functional, Homo sapiens;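 also: His-tagged ARNT PAS-B domain paired with GST-TACC3 E629A dimer coactivator fragment; potency of inhibitors that break up the complex and lower AlphaScreen signal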
[2] = target: T1, Neuropeptides B/W receptor type 1 (Homo sapiens, UniProt P48145); experiment: human NPBW1 receptor blockade, IC50 – cell-based, fluorescence, dose response, set 5, late-stage follow-up (AID 588566); format: functional
T1 sequence (P48145 whole entry): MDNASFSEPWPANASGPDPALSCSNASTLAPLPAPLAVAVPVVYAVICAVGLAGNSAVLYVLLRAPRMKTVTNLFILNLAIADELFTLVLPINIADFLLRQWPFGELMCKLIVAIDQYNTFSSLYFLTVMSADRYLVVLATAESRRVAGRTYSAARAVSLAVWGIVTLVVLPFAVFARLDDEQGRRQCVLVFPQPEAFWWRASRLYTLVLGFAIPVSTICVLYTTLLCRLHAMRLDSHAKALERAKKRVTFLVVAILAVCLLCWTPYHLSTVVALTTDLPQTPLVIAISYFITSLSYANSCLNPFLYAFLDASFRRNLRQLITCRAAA

[3] = target: Melanin-concentrating hormone receptor 1 (Homo sapiens, UniProt Q99705); experiment: Late-stage fluorescence-based counterscreen for antagonists of the G-protein coupled receptor 7 (GPR7): cell-based dose response assay to identify antagonists of the melanin-concentrating hormone receptor 1 (MCHR1) Set 5.; format: functional
Activin receptor type-1 = Activin receptor type-1 (Homo sapiens, UniProt Q04771); experiment: Navigating the Kinome. Panel member name: ACVR1; format: functional
[4] = target: Ras and Rab interactor 1/Tyrosine-protein kinase ABL1 (Homo sapiens, UniProt P00519+Q13671); format: functional;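 also: biochemical TR-FRET dose-response test measuring inhibition of binding between Rin1 and Abl proteins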
[5] = target: DNA repair and recombination protein RAD54-like (Homo sapiens, UniProt Q92698); experiment: RAD54 Holliday junction migration blockers – biochemical, fluorescence, cherry-picked samples, dose series, confirmation (AID 651657); format: functional
DNA repair and recombination protein RAD54-like, sequence (Q92698 whole entry): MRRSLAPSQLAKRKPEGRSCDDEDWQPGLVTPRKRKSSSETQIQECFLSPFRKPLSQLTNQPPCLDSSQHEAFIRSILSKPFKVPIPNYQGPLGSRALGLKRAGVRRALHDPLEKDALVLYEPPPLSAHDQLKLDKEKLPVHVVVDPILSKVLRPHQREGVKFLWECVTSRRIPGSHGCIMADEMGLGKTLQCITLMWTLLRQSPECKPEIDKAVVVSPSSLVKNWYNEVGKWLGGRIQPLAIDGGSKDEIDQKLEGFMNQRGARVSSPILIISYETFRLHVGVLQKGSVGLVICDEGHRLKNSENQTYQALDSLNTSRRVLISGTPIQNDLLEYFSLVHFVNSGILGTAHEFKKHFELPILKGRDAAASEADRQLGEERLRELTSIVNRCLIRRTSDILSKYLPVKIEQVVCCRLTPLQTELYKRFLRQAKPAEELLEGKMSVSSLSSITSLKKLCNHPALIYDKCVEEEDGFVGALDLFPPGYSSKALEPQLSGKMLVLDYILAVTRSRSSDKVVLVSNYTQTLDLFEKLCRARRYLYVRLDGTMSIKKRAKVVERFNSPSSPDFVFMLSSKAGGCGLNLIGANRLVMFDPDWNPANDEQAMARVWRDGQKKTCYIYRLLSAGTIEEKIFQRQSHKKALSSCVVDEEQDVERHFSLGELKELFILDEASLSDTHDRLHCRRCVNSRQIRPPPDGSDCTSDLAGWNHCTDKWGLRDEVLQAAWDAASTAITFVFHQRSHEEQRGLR

Activin receptor type-1, sequence (Q04771 whole entry): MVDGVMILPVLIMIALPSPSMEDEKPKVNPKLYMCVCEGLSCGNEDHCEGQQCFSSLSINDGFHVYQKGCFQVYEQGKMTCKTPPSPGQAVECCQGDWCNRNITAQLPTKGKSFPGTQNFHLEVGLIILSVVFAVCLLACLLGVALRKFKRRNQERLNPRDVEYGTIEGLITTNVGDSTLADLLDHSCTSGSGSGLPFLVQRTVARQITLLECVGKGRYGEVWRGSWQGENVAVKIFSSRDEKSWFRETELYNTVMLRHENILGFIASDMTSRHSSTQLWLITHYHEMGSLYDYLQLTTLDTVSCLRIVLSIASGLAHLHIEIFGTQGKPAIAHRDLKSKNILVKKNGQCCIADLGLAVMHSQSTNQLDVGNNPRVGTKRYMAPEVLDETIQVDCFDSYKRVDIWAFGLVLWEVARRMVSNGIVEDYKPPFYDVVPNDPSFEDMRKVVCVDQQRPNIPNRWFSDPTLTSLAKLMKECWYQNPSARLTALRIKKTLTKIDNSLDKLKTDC
Melanin-concentrating hormone receptor 1, sequence (Q99705 whole entry): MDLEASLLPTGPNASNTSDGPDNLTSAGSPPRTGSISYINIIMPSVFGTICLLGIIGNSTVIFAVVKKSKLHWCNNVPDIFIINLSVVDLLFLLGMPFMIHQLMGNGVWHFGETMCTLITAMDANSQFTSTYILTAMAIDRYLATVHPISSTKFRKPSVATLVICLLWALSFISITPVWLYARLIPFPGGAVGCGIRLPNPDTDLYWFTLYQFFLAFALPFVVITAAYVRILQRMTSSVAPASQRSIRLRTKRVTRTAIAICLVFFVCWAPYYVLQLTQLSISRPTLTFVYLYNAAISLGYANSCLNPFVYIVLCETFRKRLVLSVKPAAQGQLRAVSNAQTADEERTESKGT
Ras and Rab interactor 1/Tyrosine-protein kinase ABL1, sequence (P00519 whole entry): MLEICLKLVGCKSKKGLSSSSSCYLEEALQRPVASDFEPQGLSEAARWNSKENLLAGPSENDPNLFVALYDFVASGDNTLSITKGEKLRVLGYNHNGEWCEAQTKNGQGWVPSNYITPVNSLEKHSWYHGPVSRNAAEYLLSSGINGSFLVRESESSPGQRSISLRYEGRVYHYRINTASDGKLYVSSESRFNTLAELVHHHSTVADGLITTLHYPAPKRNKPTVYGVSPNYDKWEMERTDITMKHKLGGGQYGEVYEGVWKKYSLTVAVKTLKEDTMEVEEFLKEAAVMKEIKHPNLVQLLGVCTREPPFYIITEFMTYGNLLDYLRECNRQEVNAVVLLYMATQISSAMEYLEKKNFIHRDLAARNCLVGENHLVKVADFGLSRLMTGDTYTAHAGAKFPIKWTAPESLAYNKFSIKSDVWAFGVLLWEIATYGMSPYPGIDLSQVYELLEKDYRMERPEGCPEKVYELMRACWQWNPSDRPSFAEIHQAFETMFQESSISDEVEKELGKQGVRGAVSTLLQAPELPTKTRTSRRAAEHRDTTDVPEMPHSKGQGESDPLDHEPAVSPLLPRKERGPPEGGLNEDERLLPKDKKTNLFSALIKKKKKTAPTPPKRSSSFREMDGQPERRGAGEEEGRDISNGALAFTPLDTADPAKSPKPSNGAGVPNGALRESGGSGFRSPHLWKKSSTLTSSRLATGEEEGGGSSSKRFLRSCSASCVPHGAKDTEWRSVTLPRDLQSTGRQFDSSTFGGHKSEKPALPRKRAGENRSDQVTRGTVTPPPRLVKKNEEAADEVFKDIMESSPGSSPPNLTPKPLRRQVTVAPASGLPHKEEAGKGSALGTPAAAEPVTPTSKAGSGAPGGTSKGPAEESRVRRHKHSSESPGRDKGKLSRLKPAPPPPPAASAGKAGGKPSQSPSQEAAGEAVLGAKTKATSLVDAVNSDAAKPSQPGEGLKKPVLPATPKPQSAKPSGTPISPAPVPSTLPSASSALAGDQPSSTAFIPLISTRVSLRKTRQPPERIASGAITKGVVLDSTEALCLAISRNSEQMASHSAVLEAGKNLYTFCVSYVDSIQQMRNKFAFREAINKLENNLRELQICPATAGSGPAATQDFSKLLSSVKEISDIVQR
Ras and Rab interactor 1/Tyrosine-protein kinase ABL1, sequence (Q13671 whole entry): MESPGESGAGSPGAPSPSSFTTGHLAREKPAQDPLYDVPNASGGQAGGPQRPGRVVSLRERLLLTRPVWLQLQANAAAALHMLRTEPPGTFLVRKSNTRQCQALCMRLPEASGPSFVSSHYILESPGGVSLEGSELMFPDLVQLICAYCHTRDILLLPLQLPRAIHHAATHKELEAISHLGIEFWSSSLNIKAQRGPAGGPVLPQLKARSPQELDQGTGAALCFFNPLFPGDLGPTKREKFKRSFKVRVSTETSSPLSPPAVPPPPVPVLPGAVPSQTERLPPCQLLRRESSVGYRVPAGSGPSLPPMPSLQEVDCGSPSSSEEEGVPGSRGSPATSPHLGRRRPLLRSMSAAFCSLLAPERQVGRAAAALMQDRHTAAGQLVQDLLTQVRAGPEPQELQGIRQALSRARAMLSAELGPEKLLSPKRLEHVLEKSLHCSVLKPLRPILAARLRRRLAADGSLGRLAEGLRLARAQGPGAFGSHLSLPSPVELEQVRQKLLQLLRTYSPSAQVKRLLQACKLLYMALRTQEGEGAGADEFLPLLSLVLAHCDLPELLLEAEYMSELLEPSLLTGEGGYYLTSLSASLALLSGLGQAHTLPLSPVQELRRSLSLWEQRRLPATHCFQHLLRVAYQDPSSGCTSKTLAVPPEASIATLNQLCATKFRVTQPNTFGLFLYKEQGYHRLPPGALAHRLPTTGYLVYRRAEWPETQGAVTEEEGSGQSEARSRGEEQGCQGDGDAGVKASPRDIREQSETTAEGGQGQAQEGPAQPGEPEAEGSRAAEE

SMILES: NC(=O)c1[nH]cnc1N
AC50 [1]: 90.5 µM (active)

SMILES: CC1(C)Cc2nc3sc4c(=O)[nH]cnc4c3cc2CS1
IC50 [4]: > 0.302 µM (active)

SMILES: CN(C)CCN(C(=O)c1ccc2c(c1)OCCO2)c1nc2c(Cl)cccc2s1
AC50 [5]: 55.1 µM (active)

Next, values leading:

IC50 [2]: 2.9 µM (active) | IC50 [3]: 7.86 µM (active)
SMILES: CCOC(=O)C(C#N)c1c(Cl)cnn(C2c3ccccc3-c3ccccc32)c1=O (stereo unspecified)

Ki (Activin receptor type-1): > 3.98 µM (inactive)
SMILES: C=CCn1c(=O)c2cnc(Nc3ccc(N4CCN(C)CC4)cc3)nc2n1-c1cccc(C(C)(C)O)n1 [ADAVOSERTIB]
